Test results as given in patent US20040096356A1, “Assay device for determining analytes in a liquid dairy product” (priority 1997, published 2004).

Tests used:
Assay type in all cases: binding
receptor BlaR-CTD [1] = biological target: T1, receptor BlaR-CTD (Bacillus licheniformis, UniProt P12287); assay: Five minutes test: strip test for β-lactam antibiotics in milk using BlaR-CTD; conditions: for lowest concentration detected in a milk sample: in 5 minutes, positive when first band is less intense than second band; for Intensity 1st band: scale 0 to 10, reference band 6, 47° C., 3 min incubation + 2 min migration
T1 construct: the receptor BlaR-CTD is the carboxy-terminal region of BlaR
T1 sequence (P12287 340-601): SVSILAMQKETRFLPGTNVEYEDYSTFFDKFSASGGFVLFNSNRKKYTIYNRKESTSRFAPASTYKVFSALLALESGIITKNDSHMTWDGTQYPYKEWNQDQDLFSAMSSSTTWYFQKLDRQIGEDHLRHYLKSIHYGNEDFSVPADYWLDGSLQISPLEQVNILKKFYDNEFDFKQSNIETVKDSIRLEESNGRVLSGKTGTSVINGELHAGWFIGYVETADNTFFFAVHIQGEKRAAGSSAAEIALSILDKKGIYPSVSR
Excerpt: (§1) According to a preferred embodiment of the invention an identifier is used which comprises a receptor sensitive to antibiotics having a β-lactam ring, which receptor is obtained from Bacillus licheniformis, such as the receptor BlaR or the receptor BlaR-CTD. The isolation and the peptide sequence of the protein BlaR are described in Y. Zhu et al., J. Bacteriol., 1137-1141 (1990); the receptor BlaR-CTD is the carboxy-terminal region of BlaR, whose isolation and peptide sequence are described in B. Joris et al., FEMS Microbiology Letters, 107-114 (1990).
(§2) This example illustrates the detection in milk of antibiotics having a β-lactam ring which are monitored by the health authorities. The test described in this example uses the receptor BlaR-CTD coupled with gold beads, which serve as labelling agents, and uses a support which is in the form of an assay device comprising a solid support on which membranes are fixed.
(§3) 3.79 ml of a solution of recognition agent BlaR-CTD having a concentration of 6.6 mg/ml are taken up in a sodium phosphate buffer, 20 mM pH 7. To this solution of BlaR-CTD are then added 41.71 ml of bicarbonate buffer (0.1 M sodium bicarbonate, pH 9) and 2 ml of a solution of N-hydroxysuccinimide 6-(biotinamido)caproic ester containing 2.23 mg/ml likewise of bicarbonate buffer. This solution is stirred gently on a LABINCO stirrer for tubes on a rotary axis (available from VEL, Belgium) at a rate of 2 revolutions/minute for 2 hours at ambient temperature and away from light. 2.5 ml of a solution of Tris buffer, 1 M pH 8 are incubated with the reaction mixture under the same conditions for 30 minutes. The solution thus obtained is dialysed against HNM buffer (Hepes 100 mM, pH 8, NaCl 100 mM, MgCl2 50 mM) for 24 hours. In this way a biotinylated BlaR-CTD solution is obtained which is diluted in HNM-BSA buffer (Hepes 500 mM, pH 8, NaCl 500 mM, MgCl2 250 mM, BSA 10 mg/ml) to a concentration of 250 μg of biotinylated BlaR-CTD per ml of buffer. This solution is stored at −20° C.
(§4) The biotinylated BlaR-CTD solution prepared in Example 3.1.1 is diluted 114.7 times with the HNM-BSA buffer (Hepes 500 mM, pH 8, NaCl 500 mM, MgCl2 250 mM, BSA 10 mg/ml). At room temperature, 22.5 parts by volume of this dilute biotinylated BlaR-CTD solution, 7.5 parts by volume of HNM-BSA buffer, 9.27 parts by volume of the gold particle suspension used to label the biotinylated BlaR-CTD and 6 parts by volume of reference gold particle suspension are mixed (see Example 3.1.4 below).
(§5) The first capture substance makes it possible to fix the BlaR-CTD coupled with the gold beads present in excess relative to the quantity of antibiotic present in the sample.
(§6) Assay devices containing membranes (2), (3) and (4) are used, assembled in accordance with the procedure described in Example 1.1. The membrane (3) of these devices carries on the proximal side the capture substance described in Example 32.1. and on the distal side the capture substance described in Example 3.2.2. The capture substances were deposited in accordance with the procedure described in Example 1.2.
Six samples of fresh milk are prepared, containing 0; 2; 4; 6; 8 and 10 ppb, repsectively, of cloxacillin. Each of these solutions is then analysed as follows.
(§7) An aliquot is taken of 200 μl of milk sample and 45.27 μl of solution prepared in Example 3.1.3, and is placed in a glass flask. This mixture is incubated at 47° C. for 3 minutes. An assay device is taken and is placed vertically in the glass flask such that the first end of the assay device is in contact with the mixture in such a way that the second end rests on the wall of the glass flask. The mixture is allowed to migrate over the assay device while the assembly is incubated at 47° C. for 2 minutes.
(§8) An intensity value ranging from 0 to 10 is awarded to the bands detected, the value 10 being given to the most intense band and the value 0 being given to the least intense band. On this scale, a value of 6 is awarded to the reference band. […]

receptor BlaR-CTD [2] = biological target: T1, receptor BlaR-CTD; assay: 20-minute test: strip test for β-lactam antibiotics in milk using BlaR-CTD; conditions: for Intensity 1st band: scale 0 to 10, reference band 6, 47° C., 18 min incubation + 2 min migration
Excerpt: as §1, §2, §3, §4, §5, §6
Six samples of fresh milk are prepared, containing 0; 20; 30; 40; 50 and 60 ppb, respectively, of ceftiofur. Each of these solutions is then analysed as follows.
as §7, with “for 18” for “for 3”
An intensity value ranging from 0 to 10 is awarded to the bands detected, the value 10 being given to the most intense band and the value 0 being given to the least intense band. On this scale, a value 6 is awarded to the reference band. […]

receptor BlaR-CTD [3] = biological target: T1, receptor BlaR-CTD; assay: 9-minute test: strip test for β-lactam antibiotics in milk using BlaR-CTD; conditions: for lowest concentration detected in a milk sample: in 9 minutes, positive when first band is less intense than second band; for Intensity 1st band: scale 0 to 10, reference band 6, 47° C., 7 min incubation + 2 min migration
Excerpt: as §1, §2, §3, §4, §5, §6
Six samples of fresh milk are prepared, containing 0; 4; 6; 8; 10 and 12 ppb, respectively, of cephapirin. Each of these solutions is then analysed as follows.
as §7, with “for 7” for “for 3”
as §8

receptor BlaR-CTD [4] = biological target: T1, receptor BlaR-CTD; assay: 3-minute rapid test: strip test for β-lactam antibiotics in milk using BlaR-CTD; conditions: in 3 minutes; positive when first band is less intense than second band
Excerpt: as §1, §2, §3, §4, §5, §6
7 samples of fresh milk are prepared, containing 0; 1; 2; 3; 4; 5 and 6 ppb, respectively, of penicillin G. Each of these solutions is then analysed as follows.
as §7, with “for 1 minute.” for “for 3 minutes.”, “mixture and” for “mixture in”, “such” for “such a way”
as §8

Compound	lowest concentration detected in a milk sample (receptor BlaR-CTD [1])	lowest concentration detected in a milk sample (receptor BlaR-CTD [3])	lowest concentration detected in a milk sample (receptor BlaR-CTD [4])	also measured
CO/N=C(\C(=O)N[C@@H]1C(=O)N2C(C(=O)O)=C(CSC(=O)c3ccco3)CS[C@H]12)c1csc(N)n1 [Ceftiofur, ceftiofur]	100 ppb	80 ppb		Intensity 1st band (receptor BlaR-CTD [2]; 20 ppb ceftiofur in fresh milk): 6; Intensity 1st band (receptor BlaR-CTD [2]; 30 ppb ceftiofur in fresh milk): 5; Intensity 1st band (receptor BlaR-CTD [2]; 40 ppb ceftiofur in fresh milk): 4; Intensity 1st band (receptor BlaR-CTD [2]; 50 ppb ceftiofur in fresh milk): 3; Intensity 1st band (receptor BlaR-CTD [2]; 60 ppb ceftiofur in fresh milk): 3; lowest concentration detected in a milk sample (receptor BlaR-CTD [2]; in 20 minutes, positive when first band is less intense than second band): 30 ppb
CC(=O)OCC1=C(C(=O)O)N2C(=O)[C@@H](NC(=O)CSc3ccncc3)[C@H]2SC1 [Cephapirin, cephapirin]	16 ppb	6 ppb	20 ppb	Intensity 1st band (receptor BlaR-CTD [3]; 4 ppb cephapirin in fresh milk): 6; Intensity 1st band (receptor BlaR-CTD [3]; 6 ppb cephapirin in fresh milk): 5; Intensity 1st band (receptor BlaR-CTD [3]; 8 ppb cephapirin in fresh milk): 4; Intensity 1st band (receptor BlaR-CTD [3]; 10 ppb cephapirin in fresh milk): 3; Intensity 1st band (receptor BlaR-CTD [3]; 12 ppb cephapirin in fresh milk): 3
Cc1onc(-c2ccccc2Cl)c1C(=O)N[C@@H]1C(=O)N2[C@@H]1SC(C)(C)[C@@H]2C(=O)O [Cloxacillin, cloxacillin]	4 ppb	4 ppb	less than 10 ppb	Intensity 1st band (receptor BlaR-CTD [1]; 2 ppb cloxacillin in fresh milk): 6; Intensity 1st band (receptor BlaR-CTD [1]; 4 ppb cloxacillin in fresh milk): 5; Intensity 1st band (receptor BlaR-CTD [1]; 6 ppb cloxacillin in fresh milk): 3; Intensity 1st band (receptor BlaR-CTD [1]; 8 ppb cloxacillin in fresh milk): 3; Intensity 1st band (receptor BlaR-CTD [1]; 10 ppb cloxacillin in fresh milk): 3
CC1(C)S[C@@H]2[C@H](NC(=O)[C@H](N)c3ccc(O)cc3)C(=O)N2[C@H]1C(=O)O [amoxicillin]	4 ppb	4 ppb	5 ppb	
CC1(C)S[C@@H]2[C@H](NC(=O)[C@H](N)c3ccccc3)C(=O)N2[C@H]1C(=O)O [ampicillin]	4 ppb	4 ppb	5 ppb	
Cc1nnc(SCC2=C(C(=O)O)N3C(=O)[C@@H](NC(=O)Cn4cnnn4)[C@H]3SC2)s1 [cefazolin]	60 ppb	45 ppb		
CO/N=C(\C(=O)N[C@@H]1C(=O)N2C(C(=O)[O-])=C(C[n+]3cccc4c3CCCC4)CS[C@H]12)c1csc(N)n1 [cefquinone]	less than 20 ppb	less than 20 ppb		
Cc1onc(-c2c(Cl)cccc2Cl)c1C(=O)N[C@@H]1C(=O)N2[C@@H]1SC(C)(C)[C@@H]2C(=O)O [dicloxacillin]	8 ppb	8 ppb		
CCOc1ccc2ccccc2c1C(=O)N[C@@H]1C(=O)N2[C@@H]1SC(C)(C)[C@@H]2C(=O)O [nafcillin]	20 ppb	20 ppb		
Cc1onc(-c2ccccc2)c1C(=O)N[C@@H]1C(=O)N2[C@@H]1SC(C)(C)[C@@H]2C(=O)O [oxacillin]	8 ppb	8 ppb		
